The text below walks through data of patent US20090182003A1, “Methods and Compositions for Treatment Cell Proliferative Disorders” (President and Fellows of Harvard College, priority 2006, published 2009).

Test [1] has as its target human JAK2 (Homo sapiens, UniProt O60674). Kind of test: Kinase panel screen, JAK2. Conditions: kinase reaction with 10 or 100 μM ATP. Type of test: biochemical.
Test [2] concerns the target Rsk2 (Homo sapiens, UniProt P51812). Kind of test: Kinase panel screen, Rsk2. Type of test: biochemical. The following applies: 20 μM resveratrol.
Test [3] concerns PI3K. Kind of test: Kinase panel screen, PI3K. The following applies: concentrations up to 20 micromolar.
In test [4] the target is Src (Homo sapiens, UniProt P12931). In words: Kinase panel screen, Src. Type of test: biochemical. Conditions: concentration of 20 micromolar.
In test [5] the test system is PKC. Kind of test: Kinase panel screen, PKC. Conditions: concentration of 20 micromolar.
Test [6] deals with human pim-2 (Homo sapiens, UniProt Q9P1W9). In words: Kinase panel screen, Pim-2. Type of test: biochemical. The following applies: kinase reaction with 10 or 100 μM ATP.
Test [7] has as its target T1, NLK (Homo sapiens, UniProt Q9UBE8).
T1 sequence (Q9UBE8 1-527): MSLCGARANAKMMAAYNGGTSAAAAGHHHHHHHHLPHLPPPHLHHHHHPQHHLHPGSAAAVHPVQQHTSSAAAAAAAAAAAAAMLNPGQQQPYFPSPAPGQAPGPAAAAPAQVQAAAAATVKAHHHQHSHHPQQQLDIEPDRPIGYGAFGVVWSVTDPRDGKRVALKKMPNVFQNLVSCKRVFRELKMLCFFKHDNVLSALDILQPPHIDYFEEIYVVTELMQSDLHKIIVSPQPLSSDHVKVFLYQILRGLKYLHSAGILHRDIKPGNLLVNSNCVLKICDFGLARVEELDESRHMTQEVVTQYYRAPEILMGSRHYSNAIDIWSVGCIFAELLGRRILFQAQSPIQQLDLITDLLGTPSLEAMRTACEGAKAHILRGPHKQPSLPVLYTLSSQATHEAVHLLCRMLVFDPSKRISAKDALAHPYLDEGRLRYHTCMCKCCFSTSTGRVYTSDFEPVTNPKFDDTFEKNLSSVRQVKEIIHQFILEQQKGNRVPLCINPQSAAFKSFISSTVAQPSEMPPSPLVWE
Kind of test: Kinase panel screen, NLK. Conditions: 10 μM ATP; 0.01-100 μM resveratrol. Type of test: biochemical.

For test [8], the system named is FL5.12 cells. Kind of test: Growth inhibition of hematopoietic cell line FL5.12. Type of test: cell-based. Conditions: 0.1, 1, 10 and 100 μM, 24 hours, in the presence of IL-3, Coulter cell count. On the procedure:
Hematopoietic cell line FL5.12 cells were seed at equal density and grown in the presence of IL-3, a growth factor. Cells were then treated for 24 hours with 0.1, 1, 10 and 100 μM resveratrol. Cells were counted with a Coulter particle counter to determine cell inhibition by resveratrol.

Test [9] addresses human p70S6K (Homo sapiens, UniProt P23443). In words: Kinase panel screen, p70S6K. Type of test: biochemical. Conditions: 10 or 100 μM ATP; 0.01-100 μM resveratrol.

The structures appear in SMILES notation. pIC50: −log10 of the molar value.

Sequence of human pim-2 (Q9P1W9 whole entry): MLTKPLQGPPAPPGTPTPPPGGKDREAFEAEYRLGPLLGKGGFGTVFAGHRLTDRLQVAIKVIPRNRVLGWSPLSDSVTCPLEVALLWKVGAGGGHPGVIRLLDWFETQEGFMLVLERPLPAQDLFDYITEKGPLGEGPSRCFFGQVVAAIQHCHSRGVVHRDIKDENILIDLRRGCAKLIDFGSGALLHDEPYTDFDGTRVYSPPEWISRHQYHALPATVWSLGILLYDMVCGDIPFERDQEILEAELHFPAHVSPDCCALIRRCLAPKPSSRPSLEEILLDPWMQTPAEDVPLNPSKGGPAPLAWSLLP
Sequence of Src (P12931 whole entry, species assumed): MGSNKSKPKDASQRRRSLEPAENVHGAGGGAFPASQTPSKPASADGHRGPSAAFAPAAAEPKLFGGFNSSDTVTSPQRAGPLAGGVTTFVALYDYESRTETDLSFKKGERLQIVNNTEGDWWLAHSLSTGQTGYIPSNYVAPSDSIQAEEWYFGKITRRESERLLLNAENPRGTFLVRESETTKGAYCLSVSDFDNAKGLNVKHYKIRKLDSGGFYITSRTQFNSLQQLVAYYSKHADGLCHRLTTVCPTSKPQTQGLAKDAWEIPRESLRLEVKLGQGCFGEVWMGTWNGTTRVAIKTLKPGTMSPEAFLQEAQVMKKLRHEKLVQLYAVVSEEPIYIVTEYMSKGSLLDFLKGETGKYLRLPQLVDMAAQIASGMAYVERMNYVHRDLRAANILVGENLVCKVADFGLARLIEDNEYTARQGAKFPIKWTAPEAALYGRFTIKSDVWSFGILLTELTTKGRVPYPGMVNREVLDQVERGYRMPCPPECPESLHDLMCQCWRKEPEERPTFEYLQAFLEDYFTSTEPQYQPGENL
Sequence of Rsk2 (P51812 whole entry): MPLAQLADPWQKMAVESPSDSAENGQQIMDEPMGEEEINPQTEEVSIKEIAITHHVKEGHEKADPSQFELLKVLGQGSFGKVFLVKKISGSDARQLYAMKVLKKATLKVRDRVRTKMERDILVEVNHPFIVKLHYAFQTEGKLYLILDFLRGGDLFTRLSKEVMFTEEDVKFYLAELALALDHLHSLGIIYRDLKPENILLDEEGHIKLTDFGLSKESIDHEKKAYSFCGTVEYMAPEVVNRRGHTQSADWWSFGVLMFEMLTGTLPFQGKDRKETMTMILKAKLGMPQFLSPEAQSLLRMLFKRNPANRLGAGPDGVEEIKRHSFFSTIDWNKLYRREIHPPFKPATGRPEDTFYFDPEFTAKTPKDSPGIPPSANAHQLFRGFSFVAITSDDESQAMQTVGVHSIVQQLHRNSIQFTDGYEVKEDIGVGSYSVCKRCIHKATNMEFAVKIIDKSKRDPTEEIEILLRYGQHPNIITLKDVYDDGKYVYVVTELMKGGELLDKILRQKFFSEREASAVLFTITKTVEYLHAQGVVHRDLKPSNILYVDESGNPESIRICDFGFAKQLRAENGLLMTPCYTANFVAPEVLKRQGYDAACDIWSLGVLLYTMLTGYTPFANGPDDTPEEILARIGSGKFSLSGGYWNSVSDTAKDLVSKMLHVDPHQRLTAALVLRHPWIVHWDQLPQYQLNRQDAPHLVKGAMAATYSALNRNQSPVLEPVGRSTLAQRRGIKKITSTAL
Sequence of human JAK2 (O60674 whole entry): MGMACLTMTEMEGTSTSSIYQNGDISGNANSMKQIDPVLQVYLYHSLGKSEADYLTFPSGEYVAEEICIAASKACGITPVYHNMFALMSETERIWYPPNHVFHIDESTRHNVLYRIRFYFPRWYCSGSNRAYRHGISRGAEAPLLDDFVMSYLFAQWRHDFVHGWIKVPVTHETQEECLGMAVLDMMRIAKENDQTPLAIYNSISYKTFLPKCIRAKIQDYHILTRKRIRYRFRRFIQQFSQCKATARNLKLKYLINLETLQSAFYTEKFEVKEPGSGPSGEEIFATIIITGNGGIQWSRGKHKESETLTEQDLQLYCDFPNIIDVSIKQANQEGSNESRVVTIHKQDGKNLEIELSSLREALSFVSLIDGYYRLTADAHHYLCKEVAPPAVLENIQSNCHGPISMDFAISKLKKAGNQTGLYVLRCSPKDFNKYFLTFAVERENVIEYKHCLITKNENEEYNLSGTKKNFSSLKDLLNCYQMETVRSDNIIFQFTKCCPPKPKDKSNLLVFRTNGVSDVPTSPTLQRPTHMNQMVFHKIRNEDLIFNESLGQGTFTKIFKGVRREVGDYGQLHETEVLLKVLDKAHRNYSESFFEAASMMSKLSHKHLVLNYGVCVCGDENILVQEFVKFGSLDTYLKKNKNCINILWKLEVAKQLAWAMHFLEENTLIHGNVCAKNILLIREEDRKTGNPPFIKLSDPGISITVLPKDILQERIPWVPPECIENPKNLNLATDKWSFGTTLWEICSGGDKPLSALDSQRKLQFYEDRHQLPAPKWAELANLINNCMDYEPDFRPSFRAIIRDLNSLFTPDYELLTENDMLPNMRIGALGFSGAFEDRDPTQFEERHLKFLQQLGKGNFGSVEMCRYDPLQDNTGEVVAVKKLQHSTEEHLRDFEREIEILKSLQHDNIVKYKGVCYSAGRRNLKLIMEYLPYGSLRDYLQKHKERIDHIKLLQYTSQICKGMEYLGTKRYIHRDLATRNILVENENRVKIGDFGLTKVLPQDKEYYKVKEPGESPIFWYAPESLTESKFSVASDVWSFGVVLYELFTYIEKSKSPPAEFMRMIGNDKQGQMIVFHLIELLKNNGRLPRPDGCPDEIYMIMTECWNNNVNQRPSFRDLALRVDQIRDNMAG
Sequence of human p70S6K (P23443 whole entry): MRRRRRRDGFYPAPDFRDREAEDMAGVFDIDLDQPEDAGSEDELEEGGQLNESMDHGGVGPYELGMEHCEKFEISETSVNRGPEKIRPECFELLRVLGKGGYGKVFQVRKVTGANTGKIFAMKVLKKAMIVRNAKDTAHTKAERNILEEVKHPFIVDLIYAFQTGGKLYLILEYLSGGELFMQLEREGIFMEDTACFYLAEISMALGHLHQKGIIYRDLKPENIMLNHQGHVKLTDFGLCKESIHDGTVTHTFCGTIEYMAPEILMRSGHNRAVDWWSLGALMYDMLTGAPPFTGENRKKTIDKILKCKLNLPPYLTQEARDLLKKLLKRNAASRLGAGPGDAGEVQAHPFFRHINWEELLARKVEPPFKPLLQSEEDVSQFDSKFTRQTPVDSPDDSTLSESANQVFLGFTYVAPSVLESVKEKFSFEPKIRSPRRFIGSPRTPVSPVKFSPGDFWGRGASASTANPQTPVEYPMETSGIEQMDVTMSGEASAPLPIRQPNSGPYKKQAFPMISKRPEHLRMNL

In the case of `Oc1ccc(C=Cc2cc(O)cc(O)c2)cc1` [resveratrol, 3,5, 4′-trihydroxystilbene], the pIC50 in [1] and in test [6] was 5.83 each time. The inhibition at 20 µM in [2] was ~68%. Besides, the “Inhibition of PI3K (in words)” value in test [3] is “no inhibition”. Further, the “Inhibition of Src (in words)” value in [4] is on record as “either not inhibited or only weakly inhibited”. Further, in [5], the “Inhibition of PKC (in words)” value is recorded as “either not inhibited or only weakly inhibited”. In addition, the “Inhibition of NLK (in words)” value in test [7] was “specific inhibitor”. The “Inhibition of FL5.12 cell growth (in words)” value in [8] is listed as “dose dependent inhibition”. Also, in [9], the “Inhibition of p70S6K (in words)” value is “specific inhibitor”.
